Experimental data taken from the NIST ThermoML archive (doi:10.1016/j.jct.2019.05.002).

Experiment: xn = mol fraction of the nth substance listed
Details: 100 kPa, Liquid; for speed of sound: Frequency=3 MHz, Single path-length method; for mass density: Vibrating tube method

OCCCCO [1,4-butanediol] + CCCC(=O)OCC
Details	mass density, 313.15 K [kg/m3]	mass density, 318.15 K [kg/m3]	mass density, 323.15 K [kg/m3]	speed of sound, 313.15 K [m/s]	speed of sound, 318.15 K [m/s]	speed of sound, 323.15 K [m/s]
x2 = 0	1003.7	1000.67	997.63	1567	1555.3	1543.7
x2 = 0.1009	988.99	985.72	982.43	1520.7	1508.1	1495.6
x2 = 0.1986	974.75	971.24	967.72	1476	1462.5	1449
x2 = 0.3254	956.27	952.45	948.62	1417.9	1403.2	1388.6
x2 = 0.4231	942.03	937.98	933.91	1373.2	1357.6	1342
x2 = 0.5008	930.7	926.46	922.21	1337.6	1321.3	1305
x2 = 0.5895	917.77	913.32	908.85	1297	1279.8	1262.7
x2 = 0.7128	899.8	895.05	890.28	1240.5	1222.2	1204
x2 = 0.8015	886.87	881.9	876.92	1199.9	1180.7	1161.7
x2 = 0.9105	870.99	865.75	860.51	1150	1129.8	1109.8
